Experimental findings from patent US4156011A, “Sulphur- and oxygen-containing diaryl compounds” (priority 1974, dated 1979) are described below.

Structures are written as SMILES. Counter-ions that a name gives are not always drawn. Like-named read-outs stand apart in the source and are kept apart here.

In data set [1] the test system is platelets (aggregation induced by ADP). Kind of data set: Anti-aggregation action, platelet aggregation induced by ADP. It is filed as in vivo, male Wistar rats. The settings on record: oral 100 mg/kg, 4 days; for change in aggregation, ADP transmission: ADP at 1 μM; for inhibition at 100 mg/kg: Rattus norvegicus, Platelet, 96 h, read-out: inhibition of transmission (ADP test). The protocol:
(b) by ADP: the inhibition of aggregation (that is to say the % transmission).
(§1) In Table IV which follows have been shown the results relating to the anti-aggregation action of some products on the blood of male Wistar rats, the aggregating agents used being collagen/acetic acid diluted 1/10, and ADP at 1 μM.

The nature of data set [2]: Solubility of the isolated product. The settings on record: water.
Data set [3] deals with platelets (aggregation induced by collagen). Kind of data set: Anti-aggregation action, platelet aggregation induced by collagen. The data set is classed as in vivo, male Wistar rats. Conditions: 4 days; for change in aggregation, collagen, speed / change in aggregation, collagen, latency period / change in aggregation, collagen, transmission: oral 100 mg/kg, collagen/acetic acid diluted 1/10. Here is the method: (a) by collagen: the inhibition of aggregation (which corresponds to the % transmission), the latency period and the speed; and
as §1

For data set [4], the system named is blood platelet aggregation. Kind of data set: Anti-aggregation action in rats (graded / in words). It is filed as in vivo. Details: key to Anti-aggregation action: -: zero activity; +: significant activity; ++: intense activity; +++: very intense activity. The settings on record: for anti-aggregation activity (in words): results of Table IV.
Data set [5] is described as follows: Reduction of lipids and cholesterol in rats treated orally. The data set is classed as in vivo. The settings on record: for inhibition in vivo at 20 mg/kg / inhibition in vivo at 10 mg/kg / inhibition in vivo at 50 mg/kg: Rattus norvegicus; for inhibition in vivo at 20 mg/kg / inhibition in vivo at 10 mg/kg: 72 h, 3 days; for inhibition in vivo at 20 mg/kg: oral 20 mg/kg; for inhibition in vivo at 10 mg/kg: oral 10 mg/kg; for inhibition in vivo at 50 mg/kg: 96 h, oral 50 mg/kg, 4 days.

Assay in data set [6]: as above
The data set is classed as in vivo. Conditions: Rattus norvegicus. Here is the method:
Some of the other results of the pharmacological tests which were carried out on rats are summarised below.
Rats given a normal diet are treated orally at a daily dose of 50 mg/kg for 3 and 5 days. A reduction of about 20% in the concentration of cholesterol and lipids in the plasma is observed.

Another data set in a line: Clinical tests in man. It is filed as in vivo. The protocol: The clinical tests have made it possible to confirm the pharmacological tests. Thus, in man, CRL 40,293 (Example 23) in the form of gelatine-coated pills containing 400 mg of active ingredient administered at the rate of 2 such pills twice daily has given good results in the treatment of circulatory complaints and especially of lipid disturbances.
CRL 40,386 (Example 8) has been used in man for the treatment of hyperlipidaemia in the form of gelatine-coated pills each containing 300 mg of active ingredient at the rate of 2 to 6 such pills per day.

A short description of data set [7]: Hypo-lipidaemic and hypo-cholesterolaemic action of other products (Table V). The data set is classed as in vivo, rats. The settings on record: Rattus norvegicus, 96 h; for change in vivo at 100 mg/kg: oral 100 mg/kg for 4 days; for change in vivo at 200 mg/kg: oral 200 mg/kg for 4 days. An excerpt: The results of the anti-aggregation test and of the hypo-[…] action and hypo-cholesterolaemic action tests of other products of the invention have been […] Table V which follows, the code used being the following (for each dose shown): […]

Data set [8] in a line: Hypo-lipidaemic and hypo-cholesterolaemic action in rats on hyper-lipid diet. The data set is classed as in vivo, Wistar rats. The settings on record: Rattus norvegicus, 0.1 g/kg in rats. An excerpt:
A. a batch of rats receiving a normal diet (percentage inhibition=100%);
B. a batch of rats receiving a hyper-lipid diet (percentage inhibition=0%);
C. a batch of rats receiving the hyper-lipid diet B with a daily dose, of 0.1 g/kg, of a reference product having a lipidaemia-normalising action, namely Lipavlon [ethyl 2-(p-chlorophenoxy)-2-methyl-propionate];
D. a batch of rats receiving the hyper-lipid diet B with a daily dose, of 0.1 g/kg, of another product having a lipidaemia-normalising action, namely LL 1558 [1,10-bis-(2-hydroxyethyl-thio)-decane]; and
E. a batch of rats receiving the hyper-lipid diet B with a daily dose of 10 mg/kg and 25 mg/kg, where necessary, higher doses.
In Table III which follows have been shown the results relating to CRL 40,201 (the product of Example 17) and CRL 40,202 (the product of Example 18) in respect of the hypo-lipidaemic action and hypo-cholesterolaemic action.

Setting [9] is: read-out: reduction in the cholesterol.
The mark [10] stands for this setting: read-out: reduction in the lipids.
Where [11] appears, read: read-out: Total lipids (change).
Setting [12] is: tablet of 250 to 500 mg, to prevent cardiovascular accidents, especially coronary insufficiency.

As to `OCCNCCSc1ccc(Oc2ccc(Cl)cc2)cc1` [CRL 40,274, N-Hydroxyethyl-2-[4-(4-chlorophenoxy)phenylthio]-ethylamine], in [1], the “change in aggregation, ADP transmission” value is -20%. The “solubility in water (in words)” value in data set [2] was “insoluble in water”. Moreover, the “change in aggregation, collagen, speed” value in data set [3] is 0%.

Take `CC(C)(CO)Sc1ccc(Oc2ccc(Cl)cc2)cc1` [CRL 40,276, 4-(4-Chlorophenoxy)-phenylthio-isobutanol]: the “change in aggregation, ADP transmission” value in data set [1] is -20%. For the same compound, in data set [3], the “change in aggregation, collagen, latency period” value (“change … latency period” for short) is reported as “+25%”; the “change in aggregation, collagen, speed” value is reported as -13%; the “change in aggregation, collagen, transmission” value (shortened to “change … collagen, transmission”) is -31%.

Regarding `CC(C)(CNCCO)Oc1ccc(Sc2ccc(Cl)cc2)cc1` [CRL 40,238, N-Hydroxyethyl-4-(4-chlorophenylthio)-phenoxy-isobutylamine hydrochloride], the “anti-aggregation activity (in words)” value in [4] was “the most interesting amongst them”. In data set [1], the “change in aggregation, ADP transmission” value is -46%. Further, in [2], the “solubility in water (in words)” value was “insoluble in water”. Besides, in [3], the “change … latency period” value is “+18%”; the “change in aggregation, collagen, speed” value is on record as -52%; the “change … collagen, transmission” value is reported as -47%.

`CC(C)(Sc1ccc(Sc2ccc(Cl)cc2)cc1)C(=O)OCCSCCCCCCCCCCSCCOC(=O)C(C)(C)Sc1ccc(Sc2ccc(Cl)cc2)cc1` [CRL 40,402, 3,14-Dithia-1,16-hexadecyl di-{2-[p-(p-chlorophenylthio)-phenylthio]-2-methylpropionate}]: the inhibition in vivo at 20 mg/kg in [5] (setting [9]) was found to be 14%; in [5] (setting [10]), 17%. In [5] (oral 10, 20 and 50 mg/kg, 3 to 5 days), the “cholesterol content and lipids content (in words)” value is “a reduction in the cholesterol content and lipids content is observed”. Further, the inhibition at 100 mg/kg in [1] is 25%.

As to `CC(COC(=O)C(C)Oc1ccc(Sc2ccc(Cl)cc2)cc1)SCCCCCCCCCCSC(C)COC(=O)C(C)Oc1ccc(Sc2ccc(Cl)cc2)cc1` (racemic) [CRL 40,391, (±)-2,15-Dimethyl-3,14-dithia-1,16-hexadecyl di-(±)-{2-[p-(p-chlorophenylthio)-phenoxy]-propionate}], in data set [5] (setting [9]), the inhibition in vivo at 10 mg/kg was 32% and the inhibition in vivo at 20 mg/kg was determined as 43%. Moreover, in [5] (setting [10]), the inhibition in vivo at 10 mg/kg worked out at 17% and the inhibition in vivo at 20 mg/kg was determined as 21%. In addition, the inhibition in vivo at 50 mg/kg in [6] (72 h, oral 50 mg/kg, 3 days, read-out: reduction in the cholesterol) was found to be 42%. In addition, the inhibition in vivo at 50 mg/kg in [6] (72 h, oral 50 mg/kg, 3 days, read-out: reduction in the lipids) stood at 29%. Moreover, the inhibition at 100 mg/kg in [1] worked out at 19%. In data set [3] (100 mg/kg, unit not given), the “latency time (collagen test)” value was “+40” and the “speed (collagen test)” value is -32.

For `CC(COC(=O)COc1ccc(Sc2ccc(Cl)cc2)cc1)SCCCCCCCCCCSC(C)COC(=O)COc1ccc(Sc2ccc(Cl)cc2)cc1` (racemic) [CRL 40,389, (±)-2,15-Dimethyl-3,14-dithia-1,16-hexadecyl di-[p-(p-chlorophenylthio)-phenoxy-acetate]], the inhibition in vivo at 50 mg/kg in [5] (setting [9]) and in data set [5] (setting [10]) was 35% each time. Further, the tolerance in man entry in “Clinical tests in man” (capsules or gelatine-coated pills of 500 mg, 2 to 4 per day) is listed as “well tolerated”. Also, in “Clinical tests in man” (man, capsules or gelatine-coated pills of 500 mg, 2 to 4 per day), the treatment of hyperlipidaemia entry is “efficient”.

With `O=C(CSc1ccc(Sc2ccc(Cl)cc2)cc1)OCCSCCCCCCCCCCSCCOC(=O)CSc1ccc(Sc2ccc(Cl)cc2)cc1` [CRL 40,394, 3,14-Dithia-1,16-hexadecyl di-[p-(p-chlorophenylthio)-phenylthio-acetate]], the inhibition in vivo at 50 mg/kg in data set [6] (po, 120 h, 50 mg/kg, 5 days, read-out: reduction in the cholesterol) turned out to be 16%; in [6] (po, 120 h, 50 mg/kg, 5 days, read-out: reduction in the lipids), 33%.

Consider `Cl.OCCNCCOc1ccc(Oc2ccc(Cl)cc2)cc1` [CRL 40,295, N-Hydroxyethyl-2-[4-(4-chlorophenoxy)-phenoxy]-1-ethylamine hydrochloride], for which the Anti-aggregation action entry in [4] (oral 100 mg/kg for 4 days) and in data set [4] (oral 200 mg/kg for 4 days) was “+++” in each case. The change in vivo at 100 mg/kg is -32% in data set [7] (read-out: Cholesterol (change)) and -19% in data set [7] (setting [11]). The change in vivo at 200 mg/kg in data set [7] (read-out: Cholesterol (change)) is -37%; in data set [7] (setting [11]), -28%. Further, in data set [2], the solubility worked out at 200 mg/mL. Also, the tolerance in man result in “Clinical tests in man” (setting [12]) is recorded as “well tolerated”.

For `O=C(O)CSc1ccc(Oc2ccc(Cl)cc2)cc1` [CRL 40,271, 4-(4-Chlorophenoxy)-phenylthioacetic acid], the “anti-aggregation activity (in words)” value in [4] is given as “the most interesting amongst them”. Besides, the inhibition at 100 mg/kg in [8] (read-out: cholesterol inhibition) worked out at 54%. In addition, the inhibition at 100 mg/kg in data set [8] (read-out: total lipids inhibition) is 35%. For the same compound, in data set [1], the “change in aggregation, ADP transmission” value is listed as -28%. In addition, in “Clinical tests in man” (gelatine-coated pill of 200 to 400 mg, 1 to 2 per day), the tolerance in man result is on record as “well tolerated”. Besides, the “treatment of circulatory complaints due to hyperlipidaemias” value in the data set “Clinical tests in man” (man, gelatine-coated pill of 200 to 400 mg, 1 to 2 per day) is “efficient”. Moreover, in data set [3], the “change … latency period” value is on record as “+15%”; the “change in aggregation, collagen, speed” value was -60%; the “change … collagen, transmission” value is reported as -25%.

Turning to `Cl.NCCOc1ccc(Oc2ccc(Cl)cc2)cc1` [CRL 40,317, 2-[4-(4-Chlorophenoxy)-phenoxy]-ethylamine hydrochloride], the Anti-aggregation action result in [4] (oral 100 mg/kg for 4 days) is recorded as “+”. The change in vivo at 100 mg/kg in [7] (setting [11]) was -37%. The “solubility in water (in words)” value in data set [2] was “soluble in water”. The tolerance in man entry in the data set “Clinical tests in man” (setting [12]) is listed as “well tolerated”.

On to `O=C(CSc1ccc(Oc2ccc(Cl)cc2)cc1)NCCO` [CRL 40,272, N-Hydroxyethyl-4-(4-chlorophenoxy)-phenylthioacetamide], for which the “change in aggregation, ADP transmission” value in [1] is given as -20%. In addition, in [3], the “change … latency period” value is given as “+16%” and the “change … collagen, transmission” value is recorded as 0%.
